Reference: patent publication US11674162B2, “Selective advantage in fermentation” (Ginkgo Bioworks, Inc., priority 2014, dated 2023)

Assays:
[1] = system: NS99; test: Optical density after 72 hours in defined YNB medium with different nitrogen sources; type: cell-based, Saccharomyces cerevisiae; conditions: strain NS99, 10 mM nitrogen source, aerobic 30° C.
Protocol: (§1) Strains NS98 and NS99 are industrial S. cereviaie strains carrying plasmids pNC96 (hyg^R, and a codon optimized trzE from Rhodococcus sp. MEL and pNC97 (hyg^R, and a codon optimized trzE from Rhizobium leguminosarum), respectively. Strain NS100 is the same industral S. cerevisiae stain carrying plasmid pNC67 (hyg^R, nat^R) which serves as a control strain.
(§2) Strains NS98, NS99, and NS100 were grown in defined YNB medium with 10 mM urea and 100 μg/mL hygromycin to stationary phase aerobically at 30° C. 1/1000 v/v inoculations were then made into the same defined medium with either 10 mM urea, 10 mM biuret, or no additional nitrogen and grown under the same conditions.

[2] = system: NS98; test: as above; type: cell-based, Saccharomyces cerevisiae; conditions: strain NS98, 10 mM nitrogen source, aerobic 30° C.
Protocol: as §1, §2

[3] = system: NS100; test: as above; type: cell-based, Saccharomyces cerevisiae; conditions: strain NS100 (control)
Protocol: as §2
as §2, with “Additionally, strains NS100, NS101, NS111,” for “Strains NS98, NS99,”, “NS112” for “NS100”, “cyanamide,” for “biuret,”

[4] = system: NS111; test: as above; type: cell-based, Saccharomyces cerevisiae; conditions: strain NS111 (cah), 10 mM nitrogen source
Protocol: as §2, with “Additionally, strains NS100, NS101, NS111,” for “Strains NS98, NS99,”, “NS112” for “NS100”, “cyanamide,” for “biuret,”

[5] = system: NS101; test: as above; type: cell-based, Saccharomyces cerevisiae; conditions: strain NS101 (cah), 10 mM nitrogen source
Protocol: as §2, with “Additionally, strains NS100, NS101, NS111,” for “Strains NS98, NS99,”, “NS112” for “NS100”, “cyanamide,” for “biuret,”

[6] = system: NS112; test: as above; type: cell-based, Saccharomyces cerevisiae; conditions: strain NS112 (control), 10 mM nitrogen source
Protocol: as §2, with “Additionally, strains NS100, NS101, NS111,” for “Strains NS98, NS99,”, “NS112” for “NS100”, “cyanamide,” for “biuret,”

[7] = system: NS91; test: Growth progress in MOPS defined medium with different nitrogen sources; type: cell-based, Escherichia coli; conditions: for ammonium chloride concentration giving similar growth: strain NS91 (control), 0.25 mM as sole nitrogen source; for growth with the compound as nitrogen source: control strain NS91, MOPS medium
Protocol: (§3) Vector and strain construction was as described in Examples 1-4. All vectors contain the ampicillin resistance gene, and 100 ug/mL ampicillin was added to all culture medium. These strains were grown in MOPS defined medium with different nitrogen sources.
(§4) An average of all four strains grown on different ammonium chloride concentrations from 0 to 1.5 mM is also shown as a standard curve for growth with limiting nitrogen. NS91 grown on melamine is similar to the 0 mM ammonium chloride control.
(§5) An average of all four strains grown on different ammonium chloride concentrations from 0 to 1.5 mM is also shown as a standard curve for growth with limiting nitrogen. NS91 grown on ammeline is similar to the 0 mM ammonium chloride control.
(§6) Cultures were grown aerobically at 37° C. with 100 mg/L ampicillin. Pre-cultures were grown in LB media with 100 mg/L ampicillin, washed once with an equal volume of MOPS media containing no nitrogen, and inoculated at 5% v/v of the final fermentation volume. The content of the MOPS medium is outlined in Table 9.

[8] = system: NS103; test: as above; type: cell-based, Escherichia coli; conditions: strain NS103, 0.25 mM as sole nitrogen source
Protocol: as §3, §4, §5, §6

[9] = system: NS91; test: Maximum growth rate on ammeline as sole nitrogen source; type: cell-based, Escherichia coli; conditions: strain NS91 (control), 0.5 mM ammeline as sole nitrogen source
Protocol: (§7) Strains can also be selected for improved utilization of melamine derived nitrogen sources, in one example NS88 was passaged for 11 serial transfers in MOPS defined medium with 0.5 mM ammeline as sole nitrogen source. After the final passage, single colonies were isolated, and one was designated as NS93. NS93 and NS91 were grown overnight in medium with 0.5 mM ammonium chloride as sole nitrogen source, and then inoculated in medium with 0.5 mM ammeline as sole nitrogen source.

[10] = system: NS93; test: as above; type: cell-based, Escherichia coli; conditions: strain NS93, 0.5 mM ammeline as sole nitrogen source
Protocol: as §7

[11] = system: NS90; test: Growth progress in MOPS defined medium with different nitrogen sources; type: cell-based, Escherichia coli; conditions: strain NS90, 1 mM nitrogen source
Protocol: as §3, §6

[12] = system: NS100; test: Growth progress in defined medium, 96 well plate (FIG. 21); type: cell-based, Saccharomyces cerevisiae; conditions: strain NS100 (control), 10 mM, YNB medium, 30° C.
Protocol: (§8) The optical density of NS100 and NS101 grown in defined medium with different nitrogen sources was assessed as follows. NS100 and NS101 were grown overnight in YPD medium, washed once in an equal volume of sterile water, and inoculated at 3.33% v/v. […] Data are averages of 3 replicate wells in a 96 well plate; 150 μL per well. 30° C., YNB medium contained 20 g/L glucose, 1.7 g/L YNB base medium without amino acids or ammonium sulfate, 5 g/L sodium sulfate, 100 μg/mL hygromycin, and either 10 mM urea, 10 mM cyanamide, or no nitrogen source. Inoculation was with 5 μL of culture pregrown for 24 hours in the same medium with urea as nitrogen source (FIG. 21).

[13] = system: NS101; test: as above; type: cell-based, Saccharomyces cerevisiae; conditions: strain NS101, 10 mM, YNB medium, 30° C.
Protocol: as §8

[14] = system: NS101; test: Growth in rich YPD medium with and without cyanamide (FIG. 24); type: cell-based, Saccharomyces cerevisiae; conditions: rich YPD medium with 10 mM cyanamide, 30° C.
Protocol: The optical density of NS100 and NS101 grown in rich YPD medium with 100 μg/mL hygromycin and with and without 10 mM cyanamide was assessed as follows. NS100 and NS101 were grown overnight in YNB medium, and inoculated at 3.33% v/v. […] Thus, cyanamide, in addition to functioning as a sole source of nitrogen, may also act as a deterrent for microbial growth. Data are averages of 3 replicate wells in a 96 well plate; 150 μL per well. 30° C., YPD medium or YPD medium with 10 mM cyanamide. Inoculation was with 5 μL of culture pregrown for 24 hours in the YNB medium with urea as nitrogen source (FIG. 24).

[15] = system: NS88; test: Growth progress in MOPS defined medium with different nitrogen sources; type: cell-based, Escherichia coli; conditions: strain NS88, 1 mM nitrogen source
Protocol: as §3, §6

[16] = system: E. coli strains containing pNC121; test: Growth on melamine as sole nitrogen source (FIG. 18); type: cell-based, Escherichia coli; conditions: 0.5 mM; E. coli K12, MG1655, B and Crooks strains containing pNC121
Protocol: FIGS. 16, 17, and 18 show E. coli strains derived from E. coli K12, E. coli MG1655, E. coli B, and E. coli Crooks (C) containing either pNC121 with the complete melamine utilization pathway, or pNC53, a control vector. See Tables 7 and 8 for strain details. All the strains containing pNC121 are able to grow on 0.5 mM melamine as sole nitrogen source (FIG. 18).
as §6

[17] = Table 10, 10 mM nitrogen source
[18] = Table 11, 10 mM nitrogen source

Structure (SMILES): NC(N)=O [urea]
- Optical Density 600 nm [1]: 5.26
- Optical Density 600 nm [2]: 5.09
- Optical Density 600 nm [3, 17]: 5.22
- Optical Density 600 nm [3, 18]: 3.12
- Optical Density 600 nm [4]: 3.68
- Optical Density 600 nm [5]: 3.60
- Optical Density 600 nm [6]: 3.05

Structure (SMILES): Nc1nc(N)[nH]c(=O)n1 [ammeline, Ammeline]
- ammonium chloride concentration giving similar growth [7]: ~0 mM
- ammonium chloride concentration giving similar growth [8]: ~0.5 mM
- maximum growth rate [9]: 0.024 h⁻¹
- maximum growth rate [10]: 0.087 h⁻¹

Structure (SMILES): NC(=O)NC(N)=O [biuret, Biuret]
- growth with the compound as nitrogen source [7]: does not grow
- Optical Density 600 nm [1]: 2.18
- Optical Density 600 nm [2]: 2.55
- Optical Density 600 nm [3, 17]: 1.21
- ammonium chloride concentration giving comparable optical density [11]: ~3 mM

Structure (SMILES): N#CN [cyanamide, Cyanamide]
- optical density reached [12]: comparable to that with no nitrogen present in the medium
- optical density reached [13]: comparable to that with urea
- Optical Density 600 nm [3, 18]: 0.05
- lag phase of NS101 relative to NS100 [14]: shorter lag phase
- Optical Density 600 nm [4]: 3.09
- Optical Density 600 nm [5]: 4.66
- Optical Density 600 nm [6]: 0.15

Structure (SMILES): Nc1nc(N)nc(N)n1 [melamine, Melamine]
- growth with the compound as nitrogen source [7]: does not grow
- ammonium chloride concentration giving similar growth [7]: ~0 mM
- ammonium chloride concentration giving comparable optical density [15]: ~2 mM
- growth on the compound as sole nitrogen source [16]: able to grow
